Experimental data: US20100298141A1, “SUBSTITUTED PYRIDINE N-OXIDE HERBICIDES” (E. I. DU PONT DE NEMOURS AND COMPANY, priority 2007, published 2010)

Legend:
[1] = test system: umbrella sedge; assay: Test C flooded paddy test; format: in vivo, Cyperus difformis; settings: Flood
In short: (§1)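 Compound was added to standing water 3 cm above soil, flood maintained, and plants held in a greenhouse before visual scoring against controls at 13 to 15 days.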

[2] = test system: giant foxtail; assay: Test A pre-/postemergence greenhouse test; format: in vivo, Setaria faberi; settings: for Plant response rating, Foxtail, Giant: 0 to 100 scale where 0 is no effect and 100 is complete control; for Foxtail, Giant plant response rating: 0 to 100 scale
In short: (§2)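 Greenhouse herbicide screen, pre- and postemergence in parallel. Soil: loam plus sand. Formulation: non-phytotoxic solvent mix with surfactant. Postemergence stage: one to two leaves, 2–10 cm height. Evaluation: visual injury, compared with untreated controls, about 10 days after treatment.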

[3] = test system: duck salad; assay: Test C flooded paddy test; format: in vivo, Heteranthera limosa; settings: Flood
In short: as §1

[4] = test system: morningglory; assay: Test A pre-/postemergence greenhouse test; format: in vivo, Ipomoea spp.; settings: for Plant response rating, Morningglory: 0 to 100 scale where 0 is no effect and 100 is complete control; for Morningglory plant response rating: 0 to 100 scale
In short: as §2

[5] = test system: barnyardgrass; assay: Test C flooded paddy test; format: in vivo, Echinochloa crus-galli; settings: Flood
In short: as §1

[6] = test system: redroot pigweed; assay: Test A pre-/postemergence greenhouse test; format: in vivo, Amaranthus retroflexus; settings: for Plant response rating, Pigweed: 0 to 100 scale where 0 is no effect and 100 is complete control; for Pigweed plant response rating: 0 to 100 scale
In short: as §2

[7] = test system: wheat; assay: Test A pre-/postemergence greenhouse test; format: in vivo, Triticum aestivum; settings: for Plant response rating, Wheat: 0 to 100 scale where 0 is no effect and 100 is complete control; for Wheat plant response rating: 0 to 100 scale
In short: as §2

[8] = test system: velvetleaf; assay: Test A pre-/postemergence greenhouse test; format: in vivo, Abutilon theophrasti; settings: for Plant response rating, Velvetleaf: 0 to 100 scale where 0 is no effect and 100 is complete control; for Velvetleaf plant response rating: 0 to 100 scale
In short: as §2

[9] = test system: rice; assay: Test C flooded paddy test; format: in vivo, Oryza sativa; settings: Flood
In short: as §1

[10] = test system: crabgrass; assay: Test A pre-/postemergence greenhouse test; format: in vivo, Digitaria sanguinalis; settings: for Plant response rating, Crabgrass, Large: 0 to 100 scale where 0 is no effect and 100 is complete control; for Crabgrass, Large plant response rating: 0 to 100 scale
In short: as §2

[11] = test system: barnyardgrass; assay: Test A pre-/postemergence greenhouse test; format: in vivo, Echinochloa crus-galli; settings: for Plant response rating, Barnyardgrass: 0 to 100 scale where 0 is no effect and 100 is complete control; for Barnyardgrass plant response rating: 0 to 100 scale
In short: as §2

[12] = test system: corn; assay: Test A pre-/postemergence greenhouse test; format: in vivo, Zea mays; settings: for Plant response rating, Corn: 0 to 100 scale where 0 is no effect and 100 is complete control; for Corn plant response rating: 0 to 100 scale
In short: as §2

[13] = 62 g ai/ha, scale 0 to 100 (0 no effect, 100 complete control)
[14] = 250 g ai/ha, scale 0 to 100, 0 no effect, 100 complete control, 13 to 15 days
[15] = Postemergence, 500 g ai/ha, 0 is no effect, 100 is complete control
[16] = Preemergence, 125 g ai/ha, 0 no effect, 100 complete control
[17] = Preemergence, 500 g ai/ha, 0 no effect, 100 complete control

Cc1cc[n+]([O-])c([S+]([O-])Cc2c(C(F)(F)F)nn(C)c2OC(C)C(F)(F)F)c1 (stereo not drawn) [Compound 88]
Plant response rating, Sedge, Umbrella [1, 13]: 0 | Plant response rating, Sedge, Umbrella [1, 14]: 85 | Plant response rating, Foxtail, Giant ([2]; Postemergence, 125 g ai/ha): 50 | Foxtail, Giant plant response rating [2, 15]: 90 | Foxtail, Giant plant response rating [2, 16]: 90 | Plant response rating, Foxtail, Giant ([2]; Preemergence, 500 g ai/ha): 100 | Plant response rating, Ducksalad [3, 13]: 0 | Plant response rating, Ducksalad [3, 14]: 70 | Plant response rating, Morningglory ([4]; Postemergence, 125 g ai/ha): 60 | Morningglory plant response rating [4, 15]: 90 | Morningglory plant response rating [4, 16]: 70 | Plant response rating, Morningglory ([4]; Preemergence, 500 g ai/ha): 90 | Plant response rating, Barnyardgrass [5, 13]: 0 | Plant response rating, Barnyardgrass [5, 14]: 30 | Plant response rating, Pigweed ([6]; Postemergence, 125 g ai/ha): 30 | Pigweed plant response rating [6, 15]: 80 | Pigweed plant response rating [6, 16]: 90 | Plant response rating, Pigweed ([6]; Preemergence, 500 g ai/ha): 100 | Plant response rating, Wheat ([7]; Postemergence, 125 g ai/ha): 30 | Wheat plant response rating [7, 15]: 70 | Wheat plant response rating [7, 16]: 20 | Wheat plant response rating [7, 17]: 80 | Plant response rating, Velvetleaf ([8]; Postemergence, 125 g ai/ha): 0 | Velvetleaf plant response rating [8, 15]: 50 | Velvetleaf plant response rating [8, 16]: 0 | Velvetleaf plant response rating [8, 17]: 90 | Plant response rating, Rice [9, 13]: 0 | Plant response rating, Rice [9, 14]: 45 | Plant response rating, Crabgrass, Large ([10]; Postemergence, 125 g ai/ha): 50 | Crabgrass, Large plant response rating [10, 15]: 80 | Crabgrass, Large plant response rating [10, 16]: 20 | Plant response rating, Crabgrass, Large ([10]; Preemergence, 500 g ai/ha): 90 | Plant response rating, Barnyardgrass ([11]; Postemergence, 125 g ai/ha): 30 | Barnyardgrass plant response rating [11, 15]: 80 | Barnyardgrass plant response rating [11, 16]: 60 | Plant response rating, Barnyardgrass ([11]; Preemergence, 500 g ai/ha): 100 | Plant response rating, Corn ([12]; Postemergence, 125 g ai/ha): 20 | Corn plant response rating [12, 15]: 60 | Corn plant response rating [12, 16]: 0 | Plant response rating, Corn ([12]; Preemergence, 500 g ai/ha): 50

Cn1nc(C(F)(F)F)c(C[S+]([O-])c2ccc(Cl)c[n+]2[O-])c1OCC(F)(F)C(F)(F)F (stereo not drawn) [Compound 89]
Plant response rating, Sedge, Umbrella [1, 13]: 0 | Plant response rating, Sedge, Umbrella [1, 14]: 100 | Plant response rating, Foxtail, Giant ([2]; Postemergence, 125 g ai/ha): 80 | Foxtail, Giant plant response rating [2, 15]: 90 | Foxtail, Giant plant response rating [2, 16]: 80 | Plant response rating, Foxtail, Giant ([2]; Preemergence, 500 g ai/ha): 100 | Plant response rating, Ducksalad [3, 13]: 40 | Plant response rating, Ducksalad [3, 14]: 100 | Plant response rating, Morningglory ([4]; Postemergence, 125 g ai/ha): 40 | Morningglory plant response rating [4, 15]: 90 | Plant response rating, Morningglory ([4]; Preemergence, 500 g ai/ha): 90 | Plant response rating, Barnyardgrass [5, 13]: 0 | Plant response rating, Barnyardgrass [5, 14]: 90 | Plant response rating, Pigweed ([6]; Postemergence, 125 g ai/ha): 50 | Pigweed plant response rating [6, 15]: 100 | Pigweed plant response rating [6, 16]: 80 | Plant response rating, Pigweed ([6]; Preemergence, 500 g ai/ha): 100 | Plant response rating, Wheat ([7]; Postemergence, 125 g ai/ha): 60 | Wheat plant response rating [7, 15]: 70 | Wheat plant response rating [7, 16]: 30 | Wheat plant response rating [7, 17]: 90 | Plant response rating, Velvetleaf ([8]; Postemergence, 125 g ai/ha): 30 | Velvetleaf plant response rating [8, 15]: 80 | Velvetleaf plant response rating [8, 16]: 10 | Velvetleaf plant response rating [8, 17]: 100 | Plant response rating, Rice [9, 13]: 0 | Plant response rating, Rice [9, 14]: 60 | Plant response rating, Crabgrass, Large ([10]; Postemergence, 125 g ai/ha): 50 | Crabgrass, Large plant response rating [10, 15]: 90 | Crabgrass, Large plant response rating [10, 16]: 90 | Plant response rating, Crabgrass, Large ([10]; Preemergence, 500 g ai/ha): 90 | Plant response rating, Barnyardgrass ([11]; Postemergence, 125 g ai/ha): 70 | Barnyardgrass plant response rating [11, 15]: 90 | Barnyardgrass plant response rating [11, 16]: 40 | Plant response rating, Barnyardgrass ([11]; Preemergence, 500 g ai/ha): 100 | Plant response rating, Corn ([12]; Postemergence, 125 g ai/ha): 50 | Corn plant response rating [12, 15]: 80 | Corn plant response rating [12, 16]: 30 | Plant response rating, Corn ([12]; Preemergence, 500 g ai/ha): 90

Cc1cc[n+]([O-])c([S+]([O-])Cc2c(C(F)(F)F)nn(C)c2OCC(F)(F)C(F)(F)F)c1 (stereo not drawn) [Compound 90]
Plant response rating, Sedge, Umbrella [1, 13]: 0 | Plant response rating, Sedge, Umbrella [1, 14]: 70 | Plant response rating, Foxtail, Giant ([2]; Postemergence, 125 g ai/ha): 50 | Foxtail, Giant plant response rating [2, 15]: 80 | Foxtail, Giant plant response rating [2, 16]: 70 | Plant response rating, Foxtail, Giant ([2]; Preemergence, 500 g ai/ha): 100 | Plant response rating, Ducksalad [3, 13]: 0 | Plant response rating, Ducksalad [3, 14]: 20 | Plant response rating, Morningglory ([4]; Postemergence, 125 g ai/ha): 20 | Morningglory plant response rating [4, 15]: 90 | Morningglory plant response rating [4, 16]: 0 | Plant response rating, Morningglory ([4]; Preemergence, 500 g ai/ha): 60 | Plant response rating, Barnyardgrass [5, 13]: 0 | Plant response rating, Barnyardgrass [5, 14]: 0 | Plant response rating, Pigweed ([6]; Postemergence, 125 g ai/ha): 10 | Pigweed plant response rating [6, 15]: 30 | Pigweed plant response rating [6, 16]: 0 | Plant response rating, Pigweed ([6]; Preemergence, 500 g ai/ha): 40 | Plant response rating, Wheat ([7]; Postemergence, 125 g ai/ha): 0 | Wheat plant response rating [7, 15]: 70 | Wheat plant response rating [7, 16]: 0 | Wheat plant response rating [7, 17]: 80 | Plant response rating, Velvetleaf ([8]; Postemergence, 125 g ai/ha): 0 | Velvetleaf plant response rating [8, 15]: 80 | Velvetleaf plant response rating [8, 16]: 0 | Velvetleaf plant response rating [8, 17]: 70 | Plant response rating, Rice [9, 13]: 0 | Plant response rating, Rice [9, 14]: 0 | Plant response rating, Crabgrass, Large ([10]; Postemergence, 125 g ai/ha): 20 | Crabgrass, Large plant response rating [10, 15]: 80 | Crabgrass, Large plant response rating [10, 16]: 40 | Plant response rating, Crabgrass, Large ([10]; Preemergence, 500 g ai/ha): 90 | Plant response rating, Barnyardgrass ([11]; Postemergence, 125 g ai/ha): 0 | Barnyardgrass plant response rating [11, 15]: 60 | Barnyardgrass plant response rating [11, 16]: 0 | Plant response rating, Barnyardgrass ([11]; Preemergence, 500 g ai/ha): 100 | Plant response rating, Corn ([12]; Postemergence, 125 g ai/ha): 30 | Corn plant response rating [12, 15]: 50 | Corn plant response rating [12, 16]: 0 | Plant response rating, Corn ([12]; Preemergence, 500 g ai/ha): 50

Cc1cc[n+]([O-])c([S+]([O-])Cc2c(C(F)(F)C(F)(F)F)nn(C)c2OCC(F)(F)F)c1 (stereo not drawn) [Compound 91]
Plant response rating, Sedge, Umbrella [1, 13]: 75 | Plant response rating, Sedge, Umbrella [1, 14]: 100 | Plant response rating, Foxtail, Giant ([2]; Postemergence, 125 g ai/ha): 80 | Foxtail, Giant plant response rating [2, 15]: 90 | Foxtail, Giant plant response rating [2, 16]: 90 | Plant response rating, Foxtail, Giant ([2]; Preemergence, 500 g ai/ha): 100 | Plant response rating, Ducksalad [3, 13]: 45 | Plant response rating, Ducksalad [3, 14]: 100 | Plant response rating, Morningglory ([4]; Postemergence, 125 g ai/ha): 20 | Morningglory plant response rating [4, 15]: 100 | Morningglory plant response rating [4, 16]: 40 | Plant response rating, Morningglory ([4]; Preemergence, 500 g ai/ha): 100 | Plant response rating, Barnyardgrass [5, 13]: 0 | Plant response rating, Barnyardgrass [5, 14]: 70 | Plant response rating, Pigweed ([6]; Postemergence, 125 g ai/ha): 50 | Pigweed plant response rating [6, 15]: 60 | Pigweed plant response rating [6, 16]: 90 | Plant response rating, Pigweed ([6]; Preemergence, 500 g ai/ha): 100 | Plant response rating, Wheat ([7]; Postemergence, 125 g ai/ha): 60 | Wheat plant response rating [7, 15]: 80 | Wheat plant response rating [7, 16]: 40 | Wheat plant response rating [7, 17]: 100 | Plant response rating, Velvetleaf ([8]; Postemergence, 125 g ai/ha): 30 | Velvetleaf plant response rating [8, 15]: 80 | Velvetleaf plant response rating [8, 16]: 0 | Velvetleaf plant response rating [8, 17]: 100 | Plant response rating, Rice [9, 13]: 0 | Plant response rating, Rice [9, 14]: 70 | Plant response rating, Crabgrass, Large ([10]; Postemergence, 125 g ai/ha): 50 | Crabgrass, Large plant response rating [10, 15]: 80 | Crabgrass, Large plant response rating [10, 16]: 20 | Plant response rating, Crabgrass, Large ([10]; Preemergence, 500 g ai/ha): 100 | Plant response rating, Barnyardgrass ([11]; Postemergence, 125 g ai/ha): 70 | Barnyardgrass plant response rating [11, 15]: 90 | Barnyardgrass plant response rating [11, 16]: 20 | Plant response rating, Barnyardgrass ([11]; Preemergence, 500 g ai/ha): 100 | Plant response rating, Corn ([12]; Postemergence, 125 g ai/ha): 20 | Corn plant response rating [12, 15]: 80 | Corn plant response rating [12, 16]: 10 | Plant response rating, Corn ([12]; Preemergence, 500 g ai/ha): 90
